Test results from patent US6548043B1, “Measurement of gastric emptying” (Metabolic Solutions, Inc., priority 1999, dated 2003).

Assay: GMBT, influence of a promotility agent
Assay type: in vivo, human
Conditions: Cisapride 10 mg the evening before and one half hour before a 350 kcal muffin test meal
Protocol: An experiment was done to examine the ability of the GMBT to detect changes introduced by the promotility agent, Cisapride. Gastric emptying tests employing a 350 kcal muffin test meal were administered on two occasions within a one-week period. One test was conducted as a control. The other test was conducted after treatment with Cisapride. Cisapride (10 mg) was administered at 10:00 P.M. on the evening prior to the test and one half hour before administration of the muffin test meal. Gastric emptying results for the control meal were delayed relative to the meal administered with Cisapride.

**Q.** For `COc1cc(N)c(Cl)cc1C(=O)NC1CCN(CCCOc2ccc(F)cc2)CC1OC` (centres unmarked) [Cisapride], which “change in T½ versus control” value (p=0.05) is on record?
**A.** significant decrease

**Q.** What about the “change in Tlag versus control” value (p=0.21) of the same molecule?
**A.** not significant
